Test results taken from US12338256B2, “Aza-tetracyclic oxazepine compounds and uses thereof” (Genentech, Inc., priority 2022, dated 2025).

Columns and labels:
[1] = test system: HPAC (homozygous mutant KRAS G12D human pancreatic cell line); assay: KRAS 3D-Cell Proliferation Assay, HPAC (Example 503); assay type: cell-based; conditions: Homo sapiens, HPAC, 168 h, HPAC 3D culture, 7 days, CellTiter-Glo 3D; read-out: Prolif HPAC 3D ATP IC50
In short: (§1)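 3D culture, ultra-low attachment wells; RPMI-1640/10% FBS/2 mM L-glutamine. Overnight settle, then compound series, 0.3% DMSO final, 7 d, 37° C, 5% CO2. Readout: CellTiter-Glo 3D luminescence. % inhibition vs DMSO (0%) and 1 μM staurosporine (100%); IC50 via 4-parameter Hill.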

[2] = test system: H1975 (KRAS wild type human lung adenocarcinoma cell line); assay: KRAS 3D-Cell Proliferation Assay, H1975 (Example 503); assay type: cell-based; conditions: Homo sapiens, NCI-H1975, 168 h, H1975 3D culture, 7 days, CellTiter-Glo 3D; read-out: Prolif H1975 3D ATP IC50
In short: as §1

SMILES | IC50 [1] | IC50 [2]
Cc1c(F)c(N)cc(-c2nc3c4c(nc(OCC5(CN6CCO[C@H](CF)C6)CC5)nc4c2F)N2C[C@H]4CC[C@H](N4)[C@H]2[C@H](C)O3)c1C(F)(F)F [Compound 171, 2-Fluoro-5-((5S,5aS,6S,9R)-1-fluoro-12-((1-(((S)-2-(fluoromethyl)morpholino)methyl)cyclopropyl)methoxy)-5-methyl-5a,6,7,8,9,10-hexahydro-5H-4-oxa-3,10a,11,13,14-pentaaza-6,9-methanonaphtho[1,8-ab]heptalen-2-yl)-3-methyl-4-(trifluoromethyl)aniline] | 0.00133 µM | 0.904 µM
Cc1c(F)c(N)cc(-c2nc3c4c(nc(OCC5(CN6CCO[C@@H](CF)C6)CC5)nc4c2F)N2C[C@H]4CC[C@H](N4)[C@H]2[C@H](C)O3)c1C(F)(F)F [Compound 172, 2-Fluoro-5-((5S,5aS,6S,9R)-1-fluoro-12-((1-(((R)-2-(fluoromethyl)morpholino)methyl)cyclopropyl)methoxy)-5-methyl-5a,6,7,8,9,10-hexahydro-5H-4-oxa-3,10a,11,13,14-pentaaza-6,9-methanonaphtho[1,8-ab]heptalen-2-yl)-3-methyl-4-(trifluoromethyl)aniline] | 0.00172 µM | 0.864 µM
Cc1c(F)c(N)cc(-c2nc3c4c(nc(OCC5(CN6CC(F)C6)CC5)nc4c2F)N2C[C@H]4CC[C@H](N4)[C@H]2[C@H](C)O3)c1C(F)(F)F [Compound 173, 2-Fluoro-5-((5S,5aS,6S,9R)-1-fluoro-12-((1-((3-fluoroazetidin-1-yl)methyl)cyclopropyl)methoxy)-5-methyl-5a,6,7,8,9,10-hexahydro-5H-4-oxa-3,10a,11,13,14-pentaaza-6,9-methanonaphtho[1,8-ab]heptalene-2-yl)-3-methyl-4-(trifluoromethyl)aniline] | 0.00133 µM | 0.917 µM
Cc1c(F)c(N)c(F)c(-c2nc3c4c(nc(OC[C@@]56CCCN5C[C@H](F)C6)nc4c2F)N2C[C@H]4CC[C@H](N4)[C@H]2[C@H](C)O3)c1CC(F)F [Compound 175, 4-(2,2-Difluoroethyl)-2,6-difluoro-3-((5S,5aS,6S,9R)-1-fluoro-12-(((2R,7aS)-2-fluorotetrahydro-1H-pyrrolizin-7a(5H)-yl)methoxy)-5-methyl-5a,6,7,8,9,10-hexahydro-5H-4-oxa-3,10a,11,13,14-pentaaza-6,9-methanonaphtho[1,8-ab]heptalen-2-yl)-5-methylaniline] | 0.0196 µM | 2.34 µM
Cc1cc(-c2nc3c4c(nc(OC[C@@]56CCCN5C[C@H](F)C6)nc4c2F)N2C[C@H]4CC[C@H](N4)[C@H]2[C@H](C)O3)c(F)c(N)n1 [Compound 177, 3-Fluoro-4-((5S,5aS,6S,9R)-1-fluoro-12-(((2R,7aS)-2-fluorotetrahydro-1H-pyrrolizin-7°(5H)-yl)methoxy)-5-methyl-5°,6,7,8,9,10-hexahydro-5H-4-oxa-3,10°,11,13,14-pentaaza-6,9-methanonaptho[1,8-ab]heptalen-2-yl)-6-methylpyridin-2-amine] | 4.45 µM | 20 µM
C[C@@H]1Oc2nc(-c3cc(N)cnc3C(F)(F)F)c(F)c3nc(OC[C@@]45CCCN4C[C@H](F)C5)nc(c23)N2C[C@H]3CC[C@H](N3)[C@@H]12 [Compound 178, 5-((5S,5aS,6S,9R)-1-Fluoro-12-(((2R,7aS)-2-fluorotetrahydro-1H-pyrrolizin-7a(5H)-yl)methoxy)-5-methyl-5a,6,7,8,9,10-hexahydro-5H-4-oxa-3,10a,11,13,14-pentaaza-6,9-methanonaphtho[1,8-ab]heptalene-2-yl)-6-(trifluoromethyl)pyridin-3-amine] | 0.133 µM | 9.28 µM
CCc1cccc2nc(N)cc(-c3nc4c5c(nc(OC[C@@]67CCCN6C[C@H](F)C7)nc5c3F)N3C[C@H]5CC[C@H](N5)[C@H]3[C@H](C)O4)c12 [Compound 179, 5-Ethyl-4-((5S,5aS,6S,9R)-1-fluoro-12-(((2R,7aS)-2-fluorotetrahydro-1H-pyrrolizin-7a(5H)-yl)methoxy)-5-methyl-5a,6,7,8,9,10-hexahydro-5H-4-oxa-3,10a,11,13,14-pentaaza-6,9-methanonaphtho[1,8-ab]heptalene-2-yl)quinolin-2-amine] | 0.294 µM | 8.41 µM
Cc1c(F)c(N)cc(-c2nc3c4c(nc(OC[C@@]56CCCN5C[C@H](F)C6)nc4c2F)N2C[C@H]4CC[C@H](N4)[C@H]2[C@H](C)O3)c1S(C)(=O)=O [Compound 180, 2-Fluoro-5-((5S,5aS,6S,9R)-1-fluoro-12-(((2R,7aS)-2-fluorotetrahydro-1H-pyrrolizin-7a(5H)-yl)methoxy)-5-methyl-5a,6,7,8,9,10-hexahydro-5H-4-oxa-3,10a,11,13,14-pentaaza-6,9-methanonaphtho[1,8-ab]heptalene-2-yl)-3-methyl-4-(methylsulfonyl)aniline] | 2 µM | 20 µM
C[C@@H]1Oc2nc(-c3cc(N)c(=O)n(C)c3C(F)(F)F)c(F)c3nc(OC[C@@]45CCCN4C[C@H](F)C5)nc(c23)N2C[C@H]3CC[C@H](N3)[C@@H]12 [Compound 184, 3-Amino-5-((5S,5aS,6S,9R)-1-fluoro-12-(((2R,7aS)-2-fluorotetrahydro-1H-pyrrolizin-7a(5H)-yl)methoxy)-5-methyl-5a,6,7,8,9,10-hexahydro-5H-4-oxa-3,10a,11,13,14-pentaaza-6,9-methanonaphtho[1,8-ab]heptalene-2-yl)-1-methyl-6-(trifluoromethyl)pyridin-2(1H)-one] | 0.147 µM | 20 µM
Cc1nc(N)cc(-c2nc3c4c(nc(OC[C@@]56CCCN5C[C@H](F)C6)nc4c2F)N2C[C@H]4CC[C@H](N4)[C@H]2[C@H](C)O3)c1CC(F)(F)F [Compound 185, 4-((5S,5aS,6S,9R)-1-Fluoro-12-(((2R,7aS)-2-fluorotetrahydro-1H-pyrrolizin-7a(5H)-yl)methoxy)-5-methyl-5a,6,7,8,9,10-hexahydro-5H-4-oxa-3,10a,11,13,14-pentaaza-6,9-methanonaphtho[1,8-ab]heptalene-2-yl)-6-methyl-5-(2,2,2-trifluoroethyl)pyridin-2-amine] | 0.032 µM | 4.93 µM
C[C@@H]1Oc2nc(-c3cc(N)c(F)cc3CC(F)F)c(F)c3nc(OC[C@@]45CCCN4C[C@H](F)C5)nc(c23)N2C[C@H]3CC[C@H](N3)[C@@H]12 [Compound 187, 4-(2,2-Difluoroethyl)-2-fluoro-5-((5S,5aS,6S,9R)-1-fluoro-12-(((2R,7aS)-2-fluorotetrahydro-1H-pyrrolizin-7a(5H)-yl)methoxy)-5-methyl-5a,6,7,8,9,10-hexahydro-5H-4-oxa-3,10a,11,13,14-pentaaza-6,9-methanonaphtho[1,8-ab]heptalene-2-yl)aniline] | 0.0348 µM | 18.9 µM
Cc1nc(N)cc(-c2nc3c4c(nc(OC[C@@]56CCCN5C[C@H](F)C6)nc4c2F)N2C[C@H]4CC[C@H](N4)[C@H]2[C@H](C)O3)c1OC(F)F [Compound 188, 5-(Difluoromethoxy)-4-((5S,5aS,6S,9R)-1-fluoro-12-(((2R,7aS)-2-fluorotetrahydro-1H-pyrrolizin-7a(5H)-yl)methoxy)-5-methyl-5a,6,7,8,9,10-hexahydro-5H-4-oxa-3,10a,11,13,14-pentaaza-6,9-methanonaphtho[1,8-ab]heptalene-2-yl)-6-methylpyridin-2-amine] | 0.066 µM | 10.1 µM
Cc1nc(N)cc(-c2nc3c4c(nc(OC[C@@]56CCCN5C[C@H](F)C6)nc4c2F)N2C[C@H]4CC[C@H](N4)[C@H]2[C@H](C)O3)c1CC(F)F [Compound 189, 5-(2,2-Difluoroethyl)-4-((5S,5aS,6S,9R)-1-fluoro-12-(((2R,7aS)-2-fluorotetrahydro-1H-pyrrolizin-7a(5H)-yl)methoxy)-5-methyl-5a,6,7,8,9,10-hexahydro-5H-4-oxa-3,10a,11,13,14-pentaaza-6,9-methanonaphtho[1,8-ab]heptalene-2-yl)-6-methylpyridin-2-amine] | 0.0954 µM | 20 µM
Cc1c(F)c(N)nc(-c2nc3c4c(nc(OC[C@@]56CCCN5C[C@H](F)C6)nc4c2F)N2C[C@H]4CC[C@H](N4)[C@H]2[C@H](C)O3)c1C(F)(F)F [Compound 191, 3-Fluoro-6-((5S,5aS,6S,9R)-1-fluoro-12-(((2R,7aS)-2-fluorotetrahydro-1H-pyrrolizin-7a(5H)-yl)methoxy)-5-methyl-5a,6,7,8,9,10-hexahydro-5H-4-oxa-3,10a,11,13,14-pentaaza-6,9-methanonaphtho[1,8-ab]heptalen-2-yl)-4-methyl-5-(trifluoromethyl)pyridin-2-amine] | 0.0296 µM | 1.41 µM
Cc1c(F)c(N)nc(-c2nc3c4c(nc(OC[C@@]56CCCN5CC5(CC5(F)F)C6)nc4c2F)N2C[C@H]4CC[C@H](N4)[C@H]2[C@H](C)O3)c1C(F)(F)F (stereo partly drawn) [Compound 192, 6-((5S,5aS,6S,9R)-12-(((7a′S)-2,2-Difluorodihydro-1′H,3′H-spiro[cyclopropane-1,2′-pyrrolizin]-7a′(5′H)-yl)methoxy)-1-fluoro-5-methyl-5a,6,7,8,9,10-hexahydro-5H-4-oxa-3,10a,11,13,14-pentaaza[6,9]methanonaphtho[1,8-ab]heptalene-2-yl)-3-fluoro-4-methyl-5-(trifluoromethyl)pyridin-2-amine] | 0.00717 µM | 1.28 µM
C[C@@H]1Oc2nc(N(C)c3ccc(F)c(N)c3)c(F)c3nc(OC[C@@]45CCCN4C[C@H](F)C5)nc(c23)N2C[C@H]3CC[C@H](N3)[C@@H]12 [Compound 193, 4-fluoro-N^1-((5S,5aS,6S,9R)-1-fluoro-12-(((2R,7aS)-2-fluorotetrahydro-1H-pyrrolizin-7a(5H)-yl)methoxy)-5-methyl-5a,6,7,8,9,10-hexahydro-5H-4-oxa-3,10a,11,13,14-pentaaza-6,9-methanonaphtho[1,8-ab]heptalen-2-yl)-N^1-methylbenzene-1,3-diamine] | 2 µM | 20 µM
